Publication PMC6480704, “Antiproliferative Aspidosperma-Type Monoterpenoid Indole Alkaloids from Bousigonia mekongensis Inhibit Tubulin Polymerization” (Molecules, 2019)
“Also recorded” adds a separate entry of the source. Where two headings read alike, the source gives them in different places.

Experiments:
[1] = system: A549 (lung carcinoma); assay: Antiproliferative SRB assay, A549; format: cell-based; conditions: Homo sapiens, read-out: IC50 A549
Protocol: (§1) We tested the fourteen known aspidosperma-type alkaloids (1–14) against chemosensitive KB (originally isolated from epidermoid carcinoma of the nasopharynx) and P-gp over-expressing multidrug-resistant (MDR) KB subline KB-VIN, as well as three additional human cancer cell lines, A549 (lung carcinoma), MDA-MB-231 (triple negative breast cancer), and MCF-7 (estrogen receptor-positive breast cancer), using a sulforhodamine B (SRB) assay (Table 1).
(§2) Antiproliferative activity was determined by the sulforhodamine B (SRB) colorimetric assay as previously described. In brief, human tumor cell lines were cultured in RPMI-1640 medium containing 2 mM l-glutamine and 25 mM HEPES (Gibco), supplemented with 10% fetal bovine serum (Speciality Media), 100 µg/mL streptomycin, 100 IU/mL penicillin, and 0.25 µg/mL amphotericin B (Corning). MDR stock cells (KB-VIN) were maintained in the presence of 100 nM vincristine (VIN) (Sigma-Aldrich, Saint Louis, MI, USA).
(§3) Freshly trypsinized cell suspensions were seeded in 96-well microtiter plates at densities of 4000–11,000 cells per well (based on the cell lines) with compounds. After 72 h in culture with test compounds, cells were fixed in 10% trichloroacetic acid followed by staining with 0.04% sulforhodamine B (Sigma-Aldrich). The bound SRB was solubilized in 10 mM Tris-base and the absorbance at 515 nm was measured using a Microplate Reader (ELx800, Bio-Tek Instruments, Winooski, VT, USA) operated by Gen5 software (BioTek) after solubilizing the protein-bound dye with 10 mM Tris base. The mean IC50 is the concentration of agent that reduced cell growth by 50% compared with vehicle (DMSO) control under the experimental conditions and is the average from at least three independent experiments with duplicate samples.
(§4) The following human tumor cell lines were used in the assay: A549 (lung carcinoma), MDA-MB-231 (triplen-egative breast cancer), KB (originally isolated from epidermoid carcinoma of the nasopharynx), KB-VIN (VIN-resistant KB subline showing MDR phenotype by overexpressing P-gp), MCF-7 (estrogen receptor (ER)-positive, HER2-negative breast cancer). […] All cell lines were obtained from the Lineberger Comprehensive Cancer Center (UNC-CH) or from ATCC (Manassas, VA), except KB-VIN, which was a generous gift from Professor Y.-C. Cheng (Yale University). Paclitaxel was purchased from Sigma-Aldrich.

[2] = system: MDA-MB-231 (triple negative breast cancer); assay: Antiproliferative SRB assay, MDA-MB-231; format: cell-based; conditions: Homo sapiens, read-out: IC50 MDA-MB-231
Protocol: as §1, §2, §3, §4

[3] = system: KB (originally isolated from epidermoid carcinoma of the nasopharynx); assay: Antiproliferative SRB assay, KB; format: cell-based; conditions: Homo sapiens, 72 h, read-out: IC50 KB
Protocol: as §1, §2, §3, §4

[4] = system: KB-VIN (VIN-resistant KB subline showing MDR phenotype by overexpressing P-gp); assay: Antiproliferative SRB assay, KB-VIN; conditions: for IC50: Homo sapiens, KBVIN, 72 h, read-out: IC50 KB-VIN; for fold higher concentration required against KB-VIN cells: KB-VIN compared with chemosensitive cells
Protocol: as §1, §2, §3, §4

[5] = system: MCF-7 (estrogen receptor-positive breast cancer); assay: Antiproliferative SRB assay, MCF-7; format: cell-based; conditions: Homo sapiens, read-out: IC50 MCF-7
Protocol: as §1, §2, §3, §4

[6] = system: A549, MDA-MB-231, KB, KB-VIN, and MCF-7; assay: Antiproliferative SRB assay, values stated across several cell lines; format: cell-based, human; conditions: for antiproliferative activity (in words): five human tumor cell lines including MDR subline KB-VIN
Protocol: as §1, §2, §3, §4

[7] = system: KB-VIN cells; assay: Cell cycle analysis by flow cytometry (PI staining); format: cell-based, human; conditions: 24 h, 1 × IC50 or 3 × IC50
Protocol: KB-VIN cells were treated with compounds 3, 4, 6, 7, and 13 at their IC50 (1 × IC50) or three-fold IC50 (3 × IC50) concentration, and the cell cycle progression was analyzed by flow cytometer (Figure 2A).
(§5) Figure 2 Mitotic defects in KB-VIN cells treated by compounds. […] Cell cycle distributions (sub-G1, G1, S, G2/M) were analyzed using flow cytometry after staining cells with propidium iodide (PI). […] Fixed cells were stained with antibodies to α-tubulin (green) and phospho-histone H3 (pH3, red), and DAPI was used for DNA (blue). Stained cells were observed by confocal fluorescence microscope. The represented image is a projection of 15~20 optical sections acquired at 0.5~1 µm intervals. […] Bar, 0.025 mm. Additional images are available in Supplementary Figure S1.
KB-VIN cells were seeded in 12-well plates at a density of 1 × 10^5 per well and incubated overnight. […] The DNA contents of stained cells were analyzed by flow cytometer (LSRFortessa, BD Biosciences) controlled by FACSDiva software (BD Biosciences). Paclitaxel (PXL) was used at 3 or 6 µM. […] Experiments were repeated a minimum of two times.

[8] = system: KB-VIN cells; assay: Immunofluorescence staining of α-tubulin, pH3 and DNA; format: cell-based, human; conditions: 24 h, 3 × IC50
Protocol: as §5
To determine whether the cell cycle arrest was due to an antimicrotubule effect, cells treated with compounds were analyzed by immunocytochemistry using antibodies to α-tubulin for microtubules and mitotic spindles, Ser10-phosphorylated histone H3 (pH3) for the condensed chromatins and 4′,6-diamidino-2-phenylindole (DAPI) for DNA. […] Thus, we concluded that these alkaloids are tubulin polymerization inhibitors.
Immunocytochemical analysis was performed as previously described. […] After treatment of cells with the agent for 24 h, cells were fixed with 4% paraformaldehyde in PBS and permeabilized with 0.5% Triton X-100 in PBS. Fixed cells were labeled with mouse monoclonal antibody to α-tubulin (B5-1-2, Sigma) and rabbit IgG to Ser10-phosphorylated histone H3 (p-H3) (#06570, EMD Millipore), followed by FITC-conjugated antibody to mouse IgG (Sigma) and Alexa Fluor 549-conjugated antibody to rabbit IgG (Life Technologies). Nuclei were labeled with DAPI (Sigma). Fluorescently-labeled cells were observed using a confocal microscope (Zeiss, LSM700) with ZEN (black edition) software (Zeiss). The 15~20 optical sections acquired at 0.5~1 µm intervals were stacked and reconstructed using ZEN (black edition) software. Experiments were repeated at least twice for each compound. Final images were prepared using Adobe Photoshop CS3.

[9] = A549, SRB assay, 72 h, positive controls, unit nM
[10] = MDA-MB-231, SRB assay, 72 h, positive controls, unit nM
[11] = SRB assay, positive controls, unit nM
[12] = MCF7, SRB assay, 72 h, positive controls, unit nM
[13] = five human tumor cell lines, read-out: IC50 range over the cell lines tested
[14] = Homo sapiens, A549, KB, KB-VIN, range stated for the group of compounds, read-out: IC50 values ranging over A549, KB and KB-VIN cells

SMILES	IC50 [4] [µM]	antiproliferative activity (in words) [6]	IC50 ([1]; A549, SRB assay, 72 h) [nM]	IC50 ([2]; MDA-MB-231, SRB assay, 72 h) [nM]	IC50 ([3]; SRB assay) [nM]	IC50 ([5]; MCF7, SRB assay, 72 h) [nM]	also measured
CC[C@]12C=CCN3CC[C@]4(C(=C(C(=O)OC)C1)Nc1ccccc14)[C@@H]32 [Compound 1, tabersonine]	7.4 ± 0.3	exhibited antiproliferative activity against all cell lines					IC50 ([1]; A549, 72 h): 6900 ± 100 nM; IC50 ([2]; MDA-MB-231, 72 h): 5900 nM; IC50 [3]: 5500 nM; IC50 ([5]; MCF7, 72 h): 7200 ± 400 nM
COC(=O)C1=C2Nc3ccccc3C23CCN2CC=CC(C(C)O)(C1)C23 [Compound 10, 19-(R)-hydroxytabersonine]	> 40	essentially inactive	> 40000	> 40000	> 40000	> 40000	
CC[C@]12C=CCN3CC[C@]4(C(=C(C(=O)OC)C1)Nc1cc(OC)ccc14)[C@@H]32 [Compound 12, 11-methoxytabersonine]	5.8 ± 0.1	exhibited antiproliferative activity against all cell lines	5200 ± 100	6800 ± 1100	5400 ± 400		IC50 ([5]; MCF7, 72 h): 8200 ± 900 nM
CC(=O)O[C@H]1C(=O)[C@@]2(C)[C@H]([C@H](OC(=O)c3ccccc3)[C@]3(O)C[C@H](OC(=O)[C@H](O)[C@@H](NC(=O)c4ccccc4)c4ccccc4)C(C)=C1C3(C)C)[C@]1(OC(C)=O)CO[C@@H]1C[C@@H]2O [PXL, paclitaxel, reference compound]	2.36 ± 0.0595						IC50 [1, 9]: 4.5 ± 0.9 nM; IC50 [2, 10]: 7 ± 0.9 nM; IC50 [3, 11]: 3.7 ± 1.1 nM; fold higher concentration required against KB-VIN cells [4]: 600 fold; IC50 [5, 12]: 8.8 ± 1 nM
CC[C@@]12CC(C(=O)OC)=C3Nc4ccccc4[C@@]34CCN(C[C@H]3O[C@H]31)[C@@H]24 [Compound 8, pachysiphine]	> 40	essentially inactive	27700 ± 100	34500 ± 200	> 40000	> 40000	
CC[C@@]12CC(C(=O)OC)=C3Nc4ccccc4[C@@]34CCN([C@H](CC(C)=O)[C@@H]3O[C@@H]31)[C@@H]24 [Compound 4, melodinine S]	6.3 ± 0.2	exhibited antiproliferative activity against all cell lines; also recorded: significant antiproliferative effects against all five tumor cell lines	5600	8200 ± 800	5800 ± 300	10000 ± 900	effect on cell cycle progression [7]: accumulation of cells in the G2/M phase; also recorded: cell cycle arrest at G2/M; microtubule / mitotic spindle morphology [8]: dotted tubulin aggregations without spindles; IC50 [6, 13]: 5.6 to 10 µM
COC(=O)C1=C2Nc3cc(OC)ccc3C23CCN2CC=CC(C(C)OC(C)=O)(C1)C23 [Compound 14, 19-(R)-acetoxy-11-methoxytabersonine]	> 40	essentially inactive	> 40000	> 40000	> 40000	> 40000	
CC[C@@]12CC(C(=O)OC)=C3Nc4cc(OC)ccc4[C@@]34CCN(C[C@H]3O[C@H]31)[C@@H]24 [Compound 9, lochnerinine]	0.7	exhibited antiproliferative activity against all cell lines	800	6000 ± 800	900	10200 ± 500	fold rise in potency by a methoxy group at C-11 ([6]; 6 compared with 5, 9 compared with 8): ~ 60 fold; IC50 [6, 14]: 0.5 to 0.9 µM
CC[C@]1(O)C[C@H]2CN(CCc3c([nH]c4ccccc34)[C@@](C(=O)OC)(c3cc4c(cc3OC)N(C=O)[C@H]3[C@@](O)(C(=O)OC)[C@H](OC(C)=O)[C@]5(CC)C=CCN6CC[C@]43[C@@H]65)C2)C1 [VIN, vincristine, reference compound]	2.48 ± 0.0282						IC50 [1, 9]: 22.9 ± 2.4 nM; IC50 [2, 10]: 32 ± 0.5 nM; IC50 [3, 11]: 4.4 ± 0.1 nM; fold higher concentration required against KB-VIN cells [4]: 600 fold; IC50 [5, 12]: 7.3 ± 0.2 nM; microtubule / mitotic spindle morphology [8]: with multipolar spindles
COC(=O)C1=C2Nc3cc(O)ccc3C23CCN2CC=CC(C(C)OC(C)=O)(C1)C23 [Compound 13, 19-(R)-acetoxy-11-hydroxytabersonine]	0.7	exhibited antiproliferative activity against all cell lines; also recorded: significant antiproliferative effects against all five tumor cell lines	700 ± 100	900	700	6700 ± 100	effect on cell cycle progression [7]: accumulation of cells in the G2/M phase; also recorded: cell cycle arrest at G2/M; microtubule / mitotic spindle morphology [8]: dotted tubulin aggregations without spindles; IC50 [6, 14]: 0.5 to 0.9 µM; IC50 [6, 13]: 0.6 to 6.7 µM
CC[C@]12CCCN3CC[C@]4(C(=C(C(=O)OC)C1)Nc1ccccc14)[C@@H]32 [Compound 2, vincadifformine]	> 40	essentially inactive	> 40000	> 40000	> 40000	> 40000	
COC(=O)C1=C2Nc3ccccc3C23CCN2CC=CC(C(C)OC(C)=O)(C1)C23 [Compound 11, 19-(R)-acetoxytabersonine]	> 40	essentially inactive	> 40000	> 40000	26500 ± 2500	> 40000	IC50 [6, 13]: > 26.5 µM
